# Data published in patent US7132419B2, “Pharmaceutical compounds” (Xenova Limited, priority 2000, dated 2006).
# Tests used:
# [1] = tested on: H69 parental (H69/P) human small cell lung carcinoma cell line; assay: Cytotoxicity, H69 parental cell line (AlamarBlue); type: cell-based; conditions: concentration required to give 50% cell kill, 5–6 days incubation
# Method: (§1) The cytotoxicity of compounds of formula (I) was measured using the H69 parental (H69/P) human small cell lung carcinoma cell line and the drug resistant human small cell lung carcinoma cell line H69/LX4 which overexpresses P-glycoprotein (Pgp). The cytotoxicity, as measured by the IC50 (concentration required to give 50% cell kill) in the H69/LX4 cell line divided by the cytotoxicity in the H69/P cell line gives an indication of the degree to which a compound is affected by Pgp-dependent MDR and is termed the resistance factor (Rf) of the compound.
# (§2) H69/P and H69/LX4 cells were pipetted into 96-well tissue culture plates and then allowed to incubate at 37° C. for 4 h. […] The plates were incubated for 5–6 days before adding AlamarBlue to each well and returning the plates to the incubator for 5–8 h to allow colour development. The cell numbers in the plates at the end of this period were directly proportional to the absorbance measured at a wavelength of 570 nm (reference wavelength 600 nm).
# [2] = tested on: drug resistant human small cell lung carcinoma cell line H69/LX4 which overexpresses P-glycoprotein (Pgp); assay: Cytotoxicity, drug resistant H69/LX4 cell line (AlamarBlue); type: cell-based; conditions: for IC50: concentration required to give 50% cell kill, 5–6 days incubation; for Rf (resistance factor): IC50 in H69/LX4 divided by IC50 in H69/P, Pgp-dependent MDR
# Method: as §1, §2
# [3] = tested on: COR-L23 parental (COR-L23/P) human non-small cell lung carcinoma cell line; assay: Cytotoxicity, COR-L23 parental cell line (SRB assay); type: cell-based; conditions: concentration required to give 50% cell kill, 5–6 days incubation
# Method: (§3) The cytotoxicity of the compounds described herein was also measured using the COR-L23 parental (COR-L23/P) human non-small cell lung carcinoma cell line and also the drug resistant human non-small cell lung carcinoma cell line COR-L23/R which overexpresses multidrug resistance associated protein (MRP). The cytotoxicity, as measured by the IC50 (concentration required to give 50% cell kill) in the L23/R cell line divided by the cytotoxicity in the L23/P cell line gives an indication of the degree to which a compound may be affected by MRP-dependant MDR and is termed the resistance factor (Rf) of the compound.
# (§4) L23/P and L23/R cells were pipetted into 96-well tissue culture plates and then allowed to incubate at 37° C. for 4 h. […] The plates were incubated for 5–6 days before proliferation was assessed using the sulphurhodamine B (SRB) assay as described by Skehan et al, J Natl Cancer Inst 1990, 82, pp 1107–1112.
# [4] = Cytotoxicity, drug resistant COR-L23/R cell line (SRB assay); type: cell-based, human; conditions: Homo sapiens, COR-L23/R; concentration required to give 50% cell kill; 5–6 days incubation
# Method: as §3, §4
# [5] = tested on: drug resistant human non-small cell lung carcinoma cell line COR-L23/R which overexpresses multidrug resistance associated protein (MRP); assay: as above; type: cell-based; conditions: for Rf (resistance factor): IC50 in L23/R divided by IC50 in L23/P, MRP-dependant MDR; for IC50: concentration required to give 50% cell kill, 5–6 days incubation
# Method: as §3, §4
# [6] = tested on: Jurkat human leukaemia cell line (JLC); assay: Cytotoxicity, Jurkat leukaemia cell line JLC; type: cell-based; conditions: concentration required to give 50% cell kill
# Method: (§5) The cytotoxicity of the compounds described herein was also measured using the Jurkat human leukaemia cell line (JLC) and also the amsacrine-resistant Jurkat human leukaemia cell line (JLA) and the doxorubicin-resistant Jurkat human leukaemia cell line (JLD). The cytotoxicity, as measured by the IC50 (concentration required to give 50% cell kill) in the JLA or JLD cell line divided by the cytotoxicity in the JLC cell line gives an indication of the degree to which a compound may be affected by atypical drug resistance and is termed the resistance factor (Rf) of the compound. The method used has been described previously (Finlay et al, Eur J. Cancer 32A, 708–714, 1996). Compounds were active in the range 1 nM to 5 μM.
# [7] = tested on: amsacrine-resistant Jurkat human leukaemia cell line (JLA); assay: Cytotoxicity, amsacrine-resistant Jurkat cell line JLA; type: cell-based; conditions: for IC50: concentration required to give 50% cell kill; for Rf (JLA/JLC): IC50 in JLA divided by IC50 in JLC, atypical drug resistance
# Method: as §5
# [8] = tested on: doxorubicin-resistant Jurkat human leukaemia cell line (JLD); assay: Cytotoxicity, doxorubicin-resistant Jurkat cell line JLD; type: cell-based; conditions: for IC50: concentration required to give 50% cell kill; for Rf (JLD/JLC): IC50 in JLD divided by IC50 in JLC, atypical drug resistance
# Method: as §5
# topoisomerase I = molecular target: T1, topoisomerase I (Homo sapiens, UniProt P11387); assay: Stabilisation of cleavable complexes, topoisomerase I; type: biochemical; conditions: range where an increase in cleavable complexes was observed relative to controls in the absence of drug
# T1 sequence (P11387 1-765): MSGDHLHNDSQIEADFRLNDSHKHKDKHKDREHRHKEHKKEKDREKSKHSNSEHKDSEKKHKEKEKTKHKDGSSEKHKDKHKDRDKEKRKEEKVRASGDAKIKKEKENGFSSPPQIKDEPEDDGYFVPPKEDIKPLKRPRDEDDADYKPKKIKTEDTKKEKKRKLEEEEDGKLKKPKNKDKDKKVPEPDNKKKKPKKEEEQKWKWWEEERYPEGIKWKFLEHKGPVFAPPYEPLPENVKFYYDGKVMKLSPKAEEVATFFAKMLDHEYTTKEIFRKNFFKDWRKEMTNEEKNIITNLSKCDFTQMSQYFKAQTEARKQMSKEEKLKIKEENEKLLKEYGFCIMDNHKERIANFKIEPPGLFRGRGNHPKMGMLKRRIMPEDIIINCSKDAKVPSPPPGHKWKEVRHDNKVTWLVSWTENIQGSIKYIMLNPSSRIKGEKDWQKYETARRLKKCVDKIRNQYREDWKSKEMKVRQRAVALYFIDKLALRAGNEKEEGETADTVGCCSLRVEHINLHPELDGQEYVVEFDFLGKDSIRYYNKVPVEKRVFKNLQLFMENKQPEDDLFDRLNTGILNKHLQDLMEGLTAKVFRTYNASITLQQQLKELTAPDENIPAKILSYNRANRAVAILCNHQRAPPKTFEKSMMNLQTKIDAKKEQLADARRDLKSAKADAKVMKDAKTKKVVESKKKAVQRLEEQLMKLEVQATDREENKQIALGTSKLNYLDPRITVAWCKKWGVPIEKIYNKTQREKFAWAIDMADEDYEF
# Description: (§6) Compounds were also studied for their ability to stabilize cleavable complexes in the presence of either topoisomerase I or II essentially as described previously (Finlay et al, Eur J. Cancer 32A, 708–714, 1996). Presence of cleavable complexes was indicated by an increase in the number and intensity of bands observed after electrophoresis and autoradiography. The results are expressed as the effective concentration range where an increase in cleavable complexes was observed relative to controls in the absence of drug.
# topoisomerase II = assay: Stabilisation of cleavable complexes, topoisomerase II; type: biochemical; conditions: range where an increase in cleavable complexes was observed relative to controls in the absence of drug
# Description: as §6
"Effective concentration range, Topoisomerase I (topoisomerase I)","Effective concentration range, Topoisomerase II (topoisomerase II)",SMILES,IC50 ([1]; Homo sapiens),IC50 ([2]; Homo sapiens),Rf (resistance factor) [2],"IC50 ([3]; Homo sapiens, COR-L23)",IC50 [4],Rf (resistance factor) [5],"IC50 ([6]; Homo sapiens, Jurkat)","IC50 ([7]; Homo sapiens, Jurkat)",Rf (JLA/JLC) [7],"IC50 ([8]; Homo sapiens, Jurkat)",Rf (JLD/JLC) [8],IC50 [1],IC50 [2],IC50 [3],IC50 [5],IC50 [6],IC50 [7],IC50 [8]
0.03 to 1.0 µM,0.03 to 1.0 µM,"COc1cccc2c1ccc1nc3cccc(C(=O)N[C@H](C)CN(C)C)c3nc12 [Compound 78, 4-Methoxy-benzo[a]phenazine-11-carboxylic acid (2-dimethylamino-1-(R)-methyl-ethyl)-amide]",0.024 µM,0.031 µM,1.3,0.0076 µM,0.0089 µM,1.2,0.021 µM,0.014 µM,0.7,0.017 µM,0.8,–,–,–,–,–,–,–
0.03 to 1.0 µM,0.03 to 1.0 µM,"COc1cccc2c1ccc1nc3cccc(C(=O)NC(C)CN(C)C)c3nc12 (stereo not drawn) [Compound 35, 4-Methoxy-benzo[a]phenazine-11-carboxylic acid (2-dimethylamino-1-methyl-ethyl)-amide]",–,–,–,–,–,–,0.028 µM,0.019 µM,0.7,0.025 µM,0.9,–,–,–,–,–,–,–
0.03 to 1.0 µM,0.03 to 1.0 µM,"COc1cccc2c1ccc1nc3cccc(C(=O)NC(CN(C)C)C(C)O)c3nc12 (stereo not drawn) [Compound 84, 4-Methoxy-benzo[a]phenazine-11-carboxylic acid (1-dimethylaminomethyl-2-hydroxy-propyl)-amide]",0.019 µM,0.019 µM,1,–,–,–,0.0044 µM,0.0098 µM,2.2,0.0072 µM,1.6,–,–,–,–,–,–,–

# The remaining lines, values behind:
SMILES,"Effective concentration range, Topoisomerase I (topoisomerase I)","Effective concentration range, Topoisomerase II (topoisomerase II)",IC50 ([1]; Homo sapiens),IC50 ([2]; Homo sapiens),Rf (resistance factor) [2],"IC50 ([3]; Homo sapiens, COR-L23)",IC50 [4],Rf (resistance factor) [5],"IC50 ([6]; Homo sapiens, Jurkat)","IC50 ([7]; Homo sapiens, Jurkat)",Rf (JLA/JLC) [7],"IC50 ([8]; Homo sapiens, Jurkat)",Rf (JLD/JLC) [8],IC50 [1],IC50 [2],IC50 [3],IC50 [5],IC50 [6],IC50 [7],IC50 [8]
"CN(C)CCNc1nc2cc(O)ccc2c2c1C(=O)c1ccccc1-2 [TAS-103, reference compound]",0.3 to 10.0 µM,0.3 to 10.0 µM,–,–,1.1,–,–,1.3,–,–,55.9,–,71.1,0.021 µM,0.022 µM,0.0163 µM,0.022 µM,0.0054 µM,0.302 µM,0.384 µM
"COc1cccc2c1ccc1nc3cccc(C(=O)NCCN(C)C)c3nc12 [Compound 3, 4-Methoxy-benzo[a]phenazine-11-carboxylic acid (2-dimethylamino-ethyl)-amide]",0.1 to 3.0 µM,0.1 to 3.0 µM,0.035 µM,0.049 µM,1.4,0.0144 µM,0.0199 µM,1.4,0.027 µM,0.0216 µM,0.8,0.0243 µM,0.9,–,–,–,–,–,–,–
"Br.CN(C)CCNC(=O)c1cccc2nc3ccc4c(O)cccc4c3nc12 [Compound 4, 4-Hydroxy-benzo[a]phenazine-11-carboxylic acid (2-dimethylamino-ethyl)-amide: hydrobromide salt]",0.1 to 3.0 µM,0.1 to 3.0 µM,–,–,1.4,–,–,1.1,–,–,1.4,–,1.2,0.035 µM,0.048 µM,0.0147 µM,0.0168 µM,0.019 µM,0.0266 µM,0.0228 µM
